Measurements taken from patent US20250314636A1, “METHOD OF PREPARING AND EXPANDING A POPULATION OF IMMUNE CELLS FOR CANCER THERAPY, POTENCY ASSAY FOR TUMOR RECOGNITION, BIOLOGICAL VACCINE PREPARATION AND EPITOPETARGET FOR ANTIBODIES” (FUNDAÇÃO D. ANNA DE SOMMER CHAMPALIMAUD E DR. CARLOS MONTEZ …, priority 2022, published 2025).

Key:
TIL = assay: Peptide recognition assay in TIL (IFN-γ ELISA / IL-17 in supernatant, 7 days); assay type: cell-based, human; design: IFN-γ production, TIL: unit not given here; conditions: for Pancreatic TIL D1599 IFN-y / Pancreatic TILD1599 IL 17: Pancreatic TIL D1599; for IFN-γ production, TIL: 10e4 TIL/well co-cultured with the peptide for 7 days, supernatant tested
Method: (§1) Peptides from tumor-associated antigens (TAAs), listed in Table 5 were placed at 1 ug/well in duplicates using anti-CD3 at 30 ng/mL as well as PHA at 5 μg/mL as positive controls.
(§2) The differences in TIL versus PBMCs can also be defined by peptide reactivity. 10e^4 TIL or 10e^4 PBMC/well were co-cultured with the peptides listed in Table 11 below for 7 days and the supernatants were tested for IFN-γ production.

PBMCs = assay: Peptide recognition assay in PBMCs (IFN-γ in supernatant, 7 days); assay type: cell-based, human; conditions: 10e4 PBMC/well co-cultured with the peptide for 7 days, supernatant tested
Method: as §1, §2

Sequence | Pancreatic TIL D1599 IFN-y (TIL) [pg/mL] | Pancreatic TILD1599 IL 17 (TIL) [pg/mL] | IFN-γ production, PBMCs (PBMCs) | IFN-γ production, TIL (TIL)
TTPLPVTSPSSASSG [MUC4-P6 [WT]] | 0 | 0 | – | –
PVTSLSSASTGDTTP [MUC4-P4 [WT]] | 17 | 0 | – | –
GIPFIETSTKTRQRVED [Kras_P15 (A146T)] | 0 | 0 | – | –
LDILDTAGQEEYSAMRD | – | – | 0 | 0
LVVVGAGVVGKSALT | – | – | 0 | 0
VTDASSASTGH [MUC4-P2_fitted for HLA-A*01:01] | 0 | 14 | – | –
YKLVVVGAVGVGKSALT | – | – | 0 | 0
LDILDTAGKEEYSAMRD [Kras_P11 (Q61K)] | 0 | 0 | – | –
FVAESAEVLLPRLVS | – | – | 0 | 0
VTDASSASTGH | – | – | 0 | 0
PVTSTSSASTGHATP [MUC4-P8 [WT]] | 0 | 2 | – | –
KLVVVGAGDVGKSALTI | – | – | 0 | 0
LQGGIPNGYLVLDLS | – | – | 0 | 0
YKLVVVGACGVGKSALT | – | – | 0 | 0
MALPTARPLLGSCGT | – | – | 0 | 0
YKLVVVGAGGVGKSALT [Kras_P1 (G12 WT)] | 0 | 37 | – | –
ELNNALQNL | – | – | 0 | 6
TTPLPVTSPSSASSG | – | – | 0 | 0
DILDTAGLEEYSAMR [KRAS_Q61L] | 24 | 0 | – | –
PVTSLSSASTGDTTP | – | – | 0 | 0
HRLSEPPEDLDALPL [Mesothelin MPF-8] | 0 | 0 | – | –
ELNNALQNL [ESAT6, reference compound] | 0 | 0 | – | –

Sequence | Pancreatic TIL D1599 IFN-y (TIL) [pg/mL] | Pancreatic TILD1599 IL 17 (TIL) [pg/mL] | IFN-γ production, PBMCs (PBMCs) | IFN-γ production, TIL (TIL)
LLPRGAPERQRLLPA | – | – | 0 | 0
TPLPVTDTSSASTGH | – | – | 0 | 0
LDVLYPKARLAFQNM [Mesothelin GPI P14] | 0 | 11 | – | –
KLVVVGAGGVGKSALTI [Kras_P8 (G13 WT)] | 0 | 108 | – | –
LDILDTAGREEYSAMRD [Kras_P13 (Q61R)] | 0 | 0 | – | –
PMVLVGNNCDLPSRT [KRAS_K117N] | 32 | 0 | – | –
VTDTSSASTGH [MUC4-P1_fitted for HLA-A*01:01] | 0 | 24 | – | –
GIPFIETSAKTRQRVED [Kras_P14 (A146 WT)] | 0 | 0 | – | –
LVVVGAGCVGKSALT [KRAS_G13C] | 26 | 0 | – | –
TLGEFLKLDRERAKN [Survivin (97-111)] | 0 | 0 | – | –
LQGGIPNGYLVLDLS [Mesothelin GPI P40 (596-610)] | 0 | 0 | – | –
YKLVVVGACGVGKSALT [Kras_P6 (G12C)] | 0 | 0 | – | –
WAVRPQDLDTCDPRQ [Mesothelin GPI P13] | 0 | 0 | – | –
TPLPVTDNSSASTGD [MUC4-P11 [Mut]] | 19 | 0 | – | –
FVAESAEVLLPRLVS [Mesothelin MPF-14] | 0 | 0 | – | –
PVTSPSSASTGHAIP [MUC4-P10 [WT]] | 5 | 0 | – | –
KLVVVGAVGVGKSAL [KRAS_G12F] | 36 | 0 | – | –
YKLVVVGAVGVGKSALT [Kras_P2 (G12V)] | 0 | 2 | – | –
LDILDTAGQEEYSAMRD [Kras_P10 (Q61 WT)] | 0 | 0 | – | –
KLVVVGAGDVGKSALTI [Kras_P9 (G13D)] | 0 | 3 | – | –
YKLVVVGADGVGKSALT [Kras_P3 (G12D)] | 0 | 0 | – | –
ALACWGVRGSLLSEA [Mesothelin MPF-12] | 0 | 0 | – | –

Sequence | Pancreatic TIL D1599 IFN-y (TIL) [pg/mL] | Pancreatic TILD1599 IL 17 (TIL) [pg/mL] | IFN-γ production, PBMCs (PBMCs) | IFN-γ production, TIL (TIL)
MQEALSGTPCLLGPG [Mesothelin GPI P40 (601-605)] | 0 | 120 | – | –
TTPLPVTIPSSASSG [MUC4-P5 [Mut][WT]] | 12 | 0 | – | –
YKLVVVGASGVGKSALT [Kras_P5 (G12S)] | 14 | 0 | – | –
LLPRGAPERQRLLPA [Mesothelin MPF-11] | 0 | 0 | – | –
MALPTARPLLGSCGT [Mesothelin MPF-1] | 0 | 0 | – | –
LAFQPPISNHPAPEY [SMAD4 [D1 private peptide]] | 0 | 0 | – | –
LVVVGAGSVGKSALT [KRAS_G13S] | 24 | 0 | – | –
YKLVVVGAAGVGKSALT [Kras_P7 (G12A)] | 0 | 65 | – | –
LDILDTAGHEEYSAMRD [Kras_P12 (Q61H)] | 0 | 4 | – | –
IPFIETSVKTRQRVE [KRAS_A146V] | 5 | 0 | – | –
LVVVGAGAVGKSALT [KRAS_G13A] | 19 | 0 | – | –
YEQLDVLKHKLDELY [Mesothelin GPI P5] | 0 | 0 | – | –
LVVVGAGRVGKSALT [KRAS_G13R] | 29 | 0 | – | –
TPLPVTDTSSASTGH [MUC4-P2 [WT]] | 0 | 1 | – | –
YKLVVVGARGVGKSALT [Kras_P4 (G12R)] | 0 | 0 | – | –
LVVVGAVGVGKSALT [KRAS fitted for HLA-DQB1*06:02] | 0 | 0 | – | –
TPLPVTDASSASTGH [MUC4-P1 [Mut][WT]] | 0 | 3 | – | –
PVTSPSSESTGHAIP [MUC4-P9 [Mut]] | 0 | 0 | – | –
LVVVGAGVVGKSALT [KRAS_G13V] | 10 | 0 | – | –
SVSTMDALRGLLPVL [Mesothelin MPF-17] | 0 | 0 | – | –
TPLPVTDTSSASTGD [MUC4-P12 [WT]] | 34 | 0 | – | –
PVTSTSSVSTGHATP [MUC4-P7 [Mut][WT]] | 0 | 0 | – | –
